Data set [1] has as its system human leptin. As to the kind of experiment: Mouse subcutaneous injection of modified synthetic leptin mRNA, human leptin ELISA. It counts as in vivo. As to conditions: human leptin in mouse plasma, 10 μg leptin mRNA. The method, then:
Prior to subcutaneous injection, mouse body weights were recorded and diet weighted, with mice grouped according to their body weights. The mice were manually restrained and placed on a work surface. Their scruffs were pinched and lifted away from the underlying muscle, the space into which was inserted a 25 gauge needle connected with a 1 ml syringe. The syringe plunger was pulled backwards in such a way as to ensure no fluid was drawn into the syringe, and then the desired volume of leptin mRNA was hand injected with moderate pressure and speed. The needle was then withdrawn and the mice returned to their cages.
8-9 week old, male C57BL/6 mice were used for the in vivo study. FPLC purified modified synthetic leptin mRNA (SEQ ID NO: 5) in which the uridines were substituted with pseudouridine (N:P molar ratio=8:1) packaged in multiple cationic lipid were diluted in injectable saline at a dose of 10 μg per average group body weight.
On day 0, animals were weighed and sorted according to average body weight. ice were dosed at 9 AM and blood was taken at 9 AM on day 0. Blood was also taken at 9 AM on each of days 1 and 2 and assessed for leptin protein levels. Body weight and food intake were also recorded.
Human leptin in mouse plasma was measured by ELISA. Antibodies purchased from the R&D Systems duoset (Cat# DY398E, part#840279 for capture antibody and part#840280 for detection antibody) were reconstituted using PBS and titered, again using PBS. The capture antibody was coated at 4 ug/ml in 30 ul/well on a white Nunc® Maxisorp 384 well plate (Cat#460372). After an overnight incubation at room temperature the capture antibody was aspirated and the plate blocked for 2 hours at room temperature with 90 ul/well of KPL milk blocker (Cat#50-82-00). Once the incubation was completed the plate was aspirated and recombinant standards and samples were added to the plate at 30 ul/well for 2 hours at 37° C. while shaking at 600 rpm. Sample/standard dilutions were made using casein sample diluent. Washing/aspiration 3 times with 100 ul/well followed, using Teknova plate wash solution (Cat# P1192). Next, detection antibody was diluted using casein detection antibody diluent to 12.5 ng/ml and added at 30 ul/well for 2 hours room temperature. After this incubation, the plate was washed again and a solution of poly-streptavidin-HRP (Cat#21140) at a 1:1250 dilution in HRP dilution buffer was added to each well (30 ul/well) and incubated for 30 minutes room temperature. A final wash/aspiration removed the HRP solution and a chemiluminescent substrate was added at 30 ul/well (Cat#1859678 & 1859679). The plate was quickly read using a SpectramaxM5 plate reader with a 50 ms integration time. The dynamic range of the ELISA is from 100-2,000 pg/ml (6.25-125 pM) of human leptin. The assay is applicable to plasma from mice, rats and cynomolgus monkeys.
Background: In an ELISA, binding on a coated surface is turned into a signal by an enzyme label.

A short description of data set [2]: Polydispersity index (PDI) of lipid nanoparticle (dynamic light scattering). It is filed as physicochemical. The method, then:
Unless indicated otherwise, all PDIs referred to herein are the PDI of the fully formed nanoparticle, as measured by dynamic light scattering on a Malvern Zetasizer. The nanoparticle sample was diluted in phosphate buffered saline (PBS) so that the count rate was approximately 200-400 kcts. The data is presented in Tables 4 and 5 as a weighted average of the intensity measure.

These results are taken from patent US10124065B2, “Lipids and lipid compositions for the delivery of active agents” (Novartis AG, priority 2013, dated 2018).

With `CCCCC/C=C\C/C=C\CCCCCCCC(=O)OCCCCOc1cc(CN(C)C)cc(OCCCCOC(=O)CCCCCCC/C=C\C/C=C\CCCCC)c1` [Example 38, (9Z,9′Z,12Z,12′Z)-((5-((dimethylamino)methyl)-1,3-phenylene)bis(oxy))bis(butane-4,1-diyl)bis(octadeca-9,12-dienoate)], the “Leptin expression SC-C57BI/6, 24 h” value in data set [1] is 0.99 ng/mL.

In the case of `CCCCCCCCCCOC(=O)CCCCCCCOc1cc(CN(C)C)cc(OCCCCCCCC(=O)OCCCCCCCCCC)c1` [Example 57, didecyl 8,8′-((5-((dimethylamino)methyl)-1,3-phenylene)bis(oxy))dioctanoate], the PDI was determined as 0.03 in data set [2] (FVII siRNA LNP, Chol/DSPC/PEG-DMG, molar ratio 45/44/9/2); 0.059 in data set [2] (FVII siRNA LNP, Chol/DSPC/S010, molar ratio 45/44/9/2); 0.038 in data set [2] (PLK1-424 siRNA LNP, Chol/DSPC/S010 45/44/9/2); 0.102 in data set [2] (leptin mRNA lipid nanoparticles).
